Values of other authors in patent US11293915B2, “Bio-adhesive gels and methods of use” (Cornell University, priority 2014, dated 2022).

Details: DTT incorporated hydrogels, DTT concentrations up to 70 mM

Which cytotoxicity does the source give for `O[C@H](CS)[C@H](O)CS` (racemic) [DTT, dithiothreitol] here?
The cytotoxicity was “do not cause significant cytotoxicity”.
